Consider 13 compounds from PubChem BioAssay (NCI).

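Grown in 96-well plates, cells were treated for 48 hours with each compound at five concentrations. Insufficient inhibition: endpoint recorded as highest concentration tested. TGI denotes the concentration required for complete inhibition of growth.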

Test systems include MALME-3M melanoma; TK-10 renal; LOX IMVI melanoma; SR leukemia; COLO 205 colon; HOP-62 NSCLC; SK-MEL-2 melanoma; MDA-MB-435; UACC-62 melanoma; DU-145 prostate.
Test in all cases: NCI anticancer screen, dose series, 48 h

Consider `COc1ccc2nc3c([N+](=O)[O-])ccc(NCCCN(C)C)c3c(N)c2c1`, for which the TGI in the assay with MALME-3M melanoma was determined as 3.1 µM; with TK-10 renal, 3.46 µM; in the assay on LOX IMVI melanoma, 3.23 µM; with SR leukemia it was 4.23 µM; in the assay with COLO 205 colon, 2.29 µM; in the assay on HOP-62 NSCLC, 3.89 µM. The TGI was 4.78 µM in the assay with SK-MEL-2 melanoma, 3.66 µM with MDA-MB-435, 3.79 µM in the assay on UACC-62 melanoma and 3.05 µM in the assay with DU-145 prostate.
For `CN(C)CCCN=c1c2ccccc2n(C)c2[nH]c(=O)n(C)c(=O)c12`, the TGI was found to be 11 µM with MALME-3M melanoma; 25.7 µM in the assay on TK-10 renal; 39.1 µM with LOX IMVI melanoma; 9.3 µM with SR leukemia; 11.9 µM with COLO 205 colon; 29.9 µM in the assay on HOP-62 NSCLC. In addition, the TGI was 9.96 µM in the assay on SK-MEL-2 melanoma, 16.8 µM in the assay with MDA-MB-435, 24.7 µM in the assay with UACC-62 melanoma and greater than 79 µM in the assay with DU-145 prostate.
As to `CCOC(=O)CCC(C(=O)OCC)n1nnc2ccc(Nc3c(C)[n+]([O-])c4cc(F)c(OCC)cc4[n+]3[O-])cc21` (stereo not given), the TGI in the assay with MALME-3M melanoma is greater than 100 µM; with TK-10 renal, greater than 100 µM; with LOX IMVI melanoma it was greater than 100 µM; in the assay with SR leukemia, greater than 100 µM; with COLO 205 colon, 83.5 µM; in the assay on HOP-62 NSCLC, greater than 100 µM. Moreover, the TGI with SK-MEL-2 melanoma was greater than 100 µM; in the assay on MDA-MB-435, greater than 100 µM; with UACC-62 melanoma, 43.1 µM; in the assay with DU-145 prostate it was greater than 100 µM.
In the case of `CON(C(=O)OC(C)(C)C)c1ccccc1`, the TGI in the assay on MALME-3M melanoma, in the assay on TK-10 renal, with LOX IMVI melanoma, in the assay with SR leukemia, with COLO 205 colon and in the assay with HOP-62 NSCLC was greater than 100 µM each time. Besides, the TGI in the assay on SK-MEL-2 melanoma, in the assay on MDA-MB-435, in the assay with UACC-62 melanoma and in the assay on DU-145 prostate was greater than 100 µM throughout.
For `COc1cc2nc3n(c(=O)c2cc1OC)CCCCC3`, the TGI in the assay with MALME-3M melanoma, with TK-10 renal, with LOX IMVI melanoma, in the assay with SR leukemia, with COLO 205 colon and in the assay on HOP-62 NSCLC was greater than 100 µM each time. Also, the TGI with SK-MEL-2 melanoma, with MDA-MB-435, in the assay with UACC-62 melanoma and in the assay with DU-145 prostate was greater than 100 µM in each case.
For `COC(=O)[C@@H](NC(=O)c1ccc(CNC(=O)/C(C)=C/c2ccccc2)cc1)C(C)C`, the TGI in the assay on MALME-3M melanoma, in the assay with TK-10 renal, with LOX IMVI melanoma, with SR leukemia, with COLO 205 colon and with HOP-62 NSCLC was greater than 100 µM throughout. In addition, the TGI with SK-MEL-2 melanoma, in the assay on MDA-MB-435, in the assay with UACC-62 melanoma and in the assay with DU-145 prostate was greater than 100 µM in each case.
`O=[N+]([O-])c1ccc2c(N=Nc3ccc4ccccc4c3O)c(O)cc(S(=O)(=O)O)c2c1`: the TGI is 85 µM in the assay with MALME-3M melanoma; greater than 100 µM in the assay on TK-10 renal; greater than 90.2 µM with LOX IMVI melanoma; greater than 69.4 µM with SR leukemia; greater than 82.9 µM in the assay on COLO 205 colon; 99.7 µM in the assay on HOP-62 NSCLC. The TGI in the assay with SK-MEL-2 melanoma is greater than 100 µM; with MDA-MB-435, greater than 100 µM; in the assay on UACC-62 melanoma, 71.9 µM; in the assay with DU-145 prostate, greater than 88.4 µM.
Regarding `O=C1C=CC(=O)[C@H]2C3C=CC(C4C3C3(Cl)C(Cl)=C(Cl)[C@]4(Cl)C3(Cl)Cl)[C@@H]12` (stereo not given in full), the TGI in the assay with MALME-3M melanoma worked out at 22.6 µM; with TK-10 renal, 30.5 µM; in the assay with LOX IMVI melanoma, 11.7 µM; with SR leukemia, 9.28 µM; with COLO 205 colon, 19.1 µM; in the assay on HOP-62 NSCLC, 31.1 µM. The TGI in the assay on SK-MEL-2 melanoma was determined as 20.3 µM; with MDA-MB-435 it was 7.02 µM; in the assay with UACC-62 melanoma, 21 µM; in the assay with DU-145 prostate it was 21.3 µM.
For the compound `NCCN(CCN)/[N+]([O-])=N/O`, the TGI in the assay with MALME-3M melanoma, in the assay with TK-10 renal, in the assay on LOX IMVI melanoma, in the assay on SR leukemia, in the assay on COLO 205 colon and in the assay with HOP-62 NSCLC was greater than 100 µM throughout. Also, the TGI in the assay with SK-MEL-2 melanoma, in the assay on MDA-MB-435, in the assay with UACC-62 melanoma and in the assay with DU-145 prostate was greater than 100 µM in each case.
For `O=C1C(=O)N(C23CC4CC(CC(C4)C2)C3)C(=S)N1c1ccccc1`, the TGI with MALME-3M melanoma, in the assay on TK-10 renal, in the assay on LOX IMVI melanoma, in the assay with SR leukemia, in the assay on COLO 205 colon and with HOP-62 NSCLC was greater than 100 µM throughout. For the same compound, the TGI in the assay on SK-MEL-2 melanoma, with MDA-MB-435, with UACC-62 melanoma and in the assay on DU-145 prostate was greater than 100 µM each time.
For the compound `O=C(NCCCc1cn[nH]c(=O)n1)c1cccc2nc3ccccc3nc12`, the TGI in the assay on MALME-3M melanoma, in the assay with TK-10 renal, with LOX IMVI melanoma, with SR leukemia, in the assay with COLO 205 colon and in the assay on HOP-62 NSCLC was greater than 100 µM throughout. Also, the TGI in the assay with SK-MEL-2 melanoma, in the assay on MDA-MB-435, with UACC-62 melanoma and in the assay on DU-145 prostate was greater than 100 µM throughout.
`O=C1CCc2ccccc2O1`: the TGI with MALME-3M melanoma, with TK-10 renal, in the assay with LOX IMVI melanoma, in the assay on SR leukemia, in the assay on COLO 205 colon and with HOP-62 NSCLC was greater than 100 µM each time. Further, the TGI in the assay with SK-MEL-2 melanoma, in the assay on MDA-MB-435, with UACC-62 melanoma and in the assay with DU-145 prostate was greater than 100 µM throughout.
`O=C1C(c2c(O)[nH]c3ccc(I)cc23)=Nc2ccccc21`: the TGI in the assay with MALME-3M melanoma was greater than 86.1 µM; with TK-10 renal, 17.9 µM; in the assay with LOX IMVI melanoma it was 34.4 µM; with SR leukemia it was greater than 100 µM; in the assay with COLO 205 colon, greater than 100 µM; with HOP-62 NSCLC it was 30 µM. Besides, the TGI in the assay with SK-MEL-2 melanoma was 15.4 µM; in the assay on MDA-MB-435, greater than 100 µM; with UACC-62 melanoma it was 21.3 µM; in the assay with DU-145 prostate, greater than 100 µM.
